Series [1] in a line: refractive index (Na D-line) (dimensionless). The note with it: 298.15 K; 101.33 kPa; Liquid.
For series [2] the following is noted: 298.15 K; 101 kPa; Liquid.
Series [3] can be described thus: xn = mol fraction of the nth substance listed. The note with it: 298.15 K, 101 kPa, Liquid.
A short description of series [4]: refractive index (Na D-line) (dimensionless); xn = mol fraction of the nth substance listed. The note with it: 298.15 K, 101 kPa, Liquid.

Numbers after ± are expanded uncertainties.

Regarding `COC(=O)OC` [dimethyl carbonate], the refractive index in series [1] is recorded as 1.36647 ± 0.00064. Also, the mass density in series [2] is 1063.28 ± 0.28 kg/m3.

Take `CCCCn1cc[n+](C)c1.F[B-](F)(F)F` [1-butyl-3-methylimidazolium tetrafluoroborate]: in series [1], the refractive index was 1.41831 ± 0.00066. In addition, the mass density in series [2] is listed as 1192.78 ± 0.71 kg/m3.

In the case of `CO` [methanol], the refractive index in series [1] is listed as 1.32668 ± 0.00064. Also, the mass density in series [2] stood at 786.72 ± 0.49 kg/m3.

Regarding `CCOS(=O)(=O)[O-].CCn1cc[n+](C)c1` [1-ethyl-3-methylimidazolium ethyl sulfate] + COC(=O)OC, the mass density amounted to 1236.33 ± 0.8 kg/m3 in series [3] (x2 = 0); 1233.17 ± 0.77 kg/m3 in series [3] (x2 = 0.0502); 1229.81 ± 0.75 kg/m3 in series [3] (x2 = 0.0999); 1223.27 ± 0.71 kg/m3 in series [3] (x2 = 0.1987); 1215.47 ± 0.67 kg/m3 in series [3] (x2 = 0.2999); 1206.15 ± 0.63 kg/m3 in series [3] (x2 = 0.3994). The mass density in series [3] (x2 = 0.5006) is listed as 1194.57 ± 0.59 kg/m3; in series [3] (x2 = 0.5999), 1180.67 ± 0.55 kg/m3; in series [3] (x2 = 0.7001), 1163.11 ± 0.5 kg/m3. Moreover, the refractive index is reported as 1.47908 ± 0.00066 in series [4] (x2 = 0); 1.47687 ± 0.00066 in series [4] (x2 = 0.0502); 1.47443 ± 0.00066 in series [4] (x2 = 0.0999); 1.46971 ± 0.00066 in series [4] (x2 = 0.1987); 1.46385 ± 0.00065 in series [4] (x2 = 0.2999); 1.45729 ± 0.00065 in series [4] (x2 = 0.3994). Besides, the refractive index was 1.44906 ± 0.00065 in series [4] (x2 = 0.5006), 1.43953 ± 0.00065 in series [4] (x2 = 0.5999) and 1.42848 ± 0.00065 in series [4] (x2 = 0.7001).

In the case of `CO` [methanol] + CCOS(=O)(=O)[O-].CCn1cc[n+](C)c1, the mass density in series [3] (x1 = 1) was found to be 786.72 ± 0.49 kg/m3. In addition, the refractive index in series [4] (x1 = 1) turned out to be 1.32668 ± 0.00064.

`CCOS(=O)(=O)[O-].CCn1cc[n+](C)c1` [1-ethyl-3-methylimidazolium ethyl sulfate]: in series [1], the refractive index was 1.47908 ± 0.00066. For the same compound, the mass density in series [2] is reported as 1236.33 ± 0.8 kg/m3.

With `CO` [methanol] + COC(=O)OC, in series [3] (x2 = 0), the mass density came to 786.72 ± 0.49 kg/m3. Further, the refractive index in series [4] (x2 = 0) came to 1.32668 ± 0.00064.

The refractive index is a measure of how strongly the sample bends light. What is called mass density is the mass of a sample divided by its volume.
